From patent US12115178B2, “Acylated active agents and methods of their use for the treatment of autoimmune disorders” (Flagship Pioneering Innovations V, Inc., priority 2018, dated 2024)
Counter-ions that a name gives are not always drawn.

Tests used:
[1] = test system: naïve CD4+ T cells; experiment: Human regulatory T cell differentiation assay; type: cell-based; settings: 6 days
Experimental: Peripheral blood mononuclear cells (PBMCs) from whole blood donated by health volunteers were separated by Ficoll-Paque gradient centrifugation and naïve CD4^+ T cells were subsequently isolated using magnet beads (EasySep™ Human Naïve CD4^+ T Cell Isolation Kit, Cambridge, MA). For regulatory T cell (Treg) differentiation assay, naïve CD4^+ T cells were cultured (1-10×10^4 cells) in CTS OpTmizer medium for 6 days and stimulated with 5 ng/ml TGF-β, 100 U/ml IL-2, and ImmunoCult™ Human […] T Cell Activator; Stemcell #10990) with/without our Compounds. Cell viability was determined using a viability dye (eBioscience Fixable Viability Dye eFluor 780: ThermoFisher 65-0865-14) at 1:500 dilution. The cells were gated for Treg, defined as Live, CD11c^−, CD14^−, CD19^−, CD8^−, CD4^+, CD3^+, CD25^+, FOXP3^+. Percent (%) Tregs were calculated as percentage of CD4^+, CD25^+, FOXP3^+ cells over total CD4 T cells. Statistical analysis was performed with GraphPad Prism Software Using One-Way ANOVA.

[2] = test system: type II collagen arthritis; experiment: In vivo rheumatoid arthritis model (semi-established type II collagen arthritis); parameters: species or system Lewis rats; settings: rats; for Mean Ankle Bone Resorption score (0-5) / Mean Ankle Cartilage Damage score (0-5) / Mean Ankle Pannus score (0-5) / Mean Ankle Periosteal Bone score (0-5) / Mean Ankle inflammation score (0-5) / Mean Knee Bone Resorption score (0-5) / Mean Knee Cartilage Damage score (0-5) / Mean Knee Pannus score (0-5): 0 = normal, 5 = severe; for Serum IgG: terminal serum ELISA for anti-type II collagen antibodies
Experimental: A study was conducted to determine the efficacy of test articles dosed by the oral (PO) route for inhibition of the inflammation (paw swelling), cartilage destruction, and bone resorption that occurs in semi-established type II collagen arthritis in female Lewis rats. Rats (10 per group) were injected intradermally (ID) with porcine type II collagen to induce arthritis; one group of rats (4 per group) served as vehicle-treated naïve controls. […] Positive controls were treated PO, BID with the reference compound Tofacitinib citrate (10 mg/kg). The rats were euthanized for necropsy on study day 21 (animals #1-5 in each group, animals #1-2 in naïve group) or 22 (animals #6-10 in each group, animals #3-4 in naïve group). Efficacy evaluation was based on animal body weights (Table 9), daily ankle caliper measurements (FIG. 4), ankle diameter expressed as area under the curve (AUC) (Table 10), terminal hind paw weights (Table 11), histopathologic evaluation of hind paws (Ankle Inflammation score: Table 12, Ankle Pannus score: Table 13, Ankle Cartilage Damage score: Table 14, Ankle Bone Resorption score: Table 15, Ankle Periosteal Bone score: Table 16, Ankle Periosteal Bone Width: Table 17) and knees (Knee Inflammation score: Table 18, Knee Pannus score: Table 19, Knee Cartilage Damage score: Table 20, Knee Bone Resorption score: Table 21), and relative spleen to body weight ratio (Table 22). Terminal serum was analyzed by enzyme-linked immunosorbent assay (ELISA) for anti-type II collagen antibodies (IgG) (Table 23). […] Statistics were conducted using ordinary one-way ANOVA with Dunnett's multiple comparison correction in GraphPad Prism.

[3] = test system: neutrophil; experiment: Neutrophil chemokine production assay; type: cell-based, human; settings: 12 h
Experimental: A volume 25 mL of human blood was layered over 15 mL of Histopaque®-1077 and centrifuged at 500 g, RT, for 30 min with no break applied to the centrifuge. The PBMC band and Histopaque®-1077 layer were removed leaving behind the bottom red layer which was mixed with 40 mL of 1× red blood cell (RBC) lysis buffer (Sigma-Aldrich) was and split into two 50 mL tubes. The volume for both fractions was brought to 50 mL with RBC lysis buffer, mixed by inversion, and then incubated at RT for 10 min. Solutions were centrifuged at 250 g, for 10 min at RT and the supernatant liquids removed. The reddish pellets were re-suspended in 1 mL of RBC lysis buffer and combined. The cell suspension was incubated for 5 min at RT in RBC lysis buffer. After incubation 45 mL of Hanks Balanced Salt Solution with no calcium, magnesium or phenol red (HBSS−) was added, the cell suspension was spun (250 g for 10 min at RT), and supernatant liquids were removed. The white pellet was re-suspended in 1 mL of HBSS−, and cell counts were determined. The neutrophil cell suspension was brought to a concentration of 1.11e6 cells/mL in RPMI complete (Sigma-Aldrich), and 180 μL of cell suspension was transferred to all wells within a sterile 96-well tissue culture treated plate resulting in 2.0e5 cells/well. […] After incubation, 10 μL of 2 μg/mL LPS solution in RPMI complete was added to each well except for control wells, which received an additional 10 μL of media. Cells were incubated for 12 h (37° C., 5% CO2), after which plates were centrifuged at 250 g, RT, for 5 min and supernatant liquids were obtained and stored at −80° C. until analyzed via Luminex® Multiplex Assay for various chemokines and cytokines. Three data points were acquired from two different blood donors and averaged.

[4] = Assay 2. Stability in Simulated Intestinal Fluid (SIF); type: in vitro ADME; settings: SIF pH 6.7 with pancreatin, 1 μM, 37° C.
How it was run: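 Compounds at 1 µM (from 1 mM DMSO stock) were incubated at 37 °C with agitation in simulated intestinal fluid: FaSSIF in pH 6.7 phosphate buffer with pancreatin. Aliquots taken from T0 onward were quenched with acetonitrile and analyzed by LC/MS for degradation rate.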

[5] = Assay 3. In vitro Colonic Material Stability Assay; type: in vitro ADME; settings: colonic material slurry, anaerobic, 1 or 10 μM
[6] = Assay 1. Stability in Simulated Gastric Fluid (SGF); type: in vitro ADME; settings: SGF pH 1.6 with pepsin, 1 μM, 37° C.
How it was run: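 Compound at 1 μM final (from 1 mM DMSO stock) incubated at 37° C in SGF: NaCl medium at pH 1.6 with FaSSIF powder and 0.1 mg/mL pepsin, prepared fresh. Aliquots taken at T0 and regular intervals, quenched with equal volume acetonitrile; LC/MS gives degradation rate.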

CCC(=O)O [Propionic acid]
Cell viability % DMSO ([1]; 3 mM): = (90%> <110%: =)

CC[C@H]1[C@@H](O)[C@@H]2[C@H](CC[C@]3(C)[C@@H]([C@H](C)CCC(=O)O)CC[C@@H]23)[C@@]2(C)CC[C@@H](O)C[C@@H]12 [Obeticholic acid]
Cell viability % DMSO ([1]; 100 uM): = (90%> <110%: =)

C[C@@H]1CCN(C(=O)CC#N)C[C@@H]1N(C)c1ncnc2[nH]ccc12 [Tofacitinib citrate, reference compound]
Mean Ankle Diameter AUC (mm*day) ([2]; 10 mg/kg PO BID): 73.82 mm*day | Mean Ankle Periosteal Bone width (um) ([2]; 10 mg/kg PO BID): 0.00 um | Mean Knee Inflammation score (0-5) ([2]; 10 mg/kg PO BID): 0.10 | Mean Terminal hind paw weights ([2]; 10 mg/kg PO BID): 1.4321 g | Mean body weight change, day −1 to 21 (%) ([2]; 10 mg/kg PO BID): 20.2% | Relative Spleen to Body Weight (Mean) ([2]; 10 mg/kg PO BID): 0.1796 | Mean Ankle Bone Resorption score (0-5) ([2]; 10 mg/kg PO BID): 0.00 | Mean Ankle Cartilage Damage score (0-5) ([2]; 10 mg/kg PO BID): 0.00 | Mean Ankle Pannus score (0-5) ([2]; 10 mg/kg PO BID): 0.00 | Mean Ankle Periosteal Bone score (0-5) ([2]; 10 mg/kg PO BID): 0.00 | Mean Ankle inflammation score (0-5) ([2]; 10 mg/kg PO BID): 1.4321 | Mean Knee Bone Resorption score (0-5) ([2]; 10 mg/kg PO BID): 0.00 | Mean Knee Cartilage Damage score (0-5) ([2]; 10 mg/kg PO BID): 0.00 | Mean Knee Pannus score (0-5) ([2]; 10 mg/kg PO BID): 0.00 | Serum IgG ([2]; 10 mg/kg PO BID): 2524.70 µg/mL

CCCC(=O)O [butyrate]
% IL-8 (Vehicle + LPS = 100%) ([3]; 500.0 μM): ++ (++ = <70%Vehicle) | % MIP-1α (Vehicle + LPS = 100%) ([3]; 500.0 μM): +++ (+++ = <50% Vehicle) | % MIP-1β (DMSO + LPS = 100%) ([3]; 500.0 μM): +++ (+++ = <50% Vehicle) | % IL-8 (Vehicle + LPS = 100%) ([3]; 1000.0 μM): ++ (++ = <70%Vehicle) | % MIP-1α (Vehicle + LPS = 100%) ([3]; 1000.0 μM): +++ (+++ = <50% Vehicle) | % MIP-1β (DMSO + LPS = 100%) ([3]; 1000.0 μM): +++ (+++ = <50% Vehicle)

CCCC(=O)Oc1cc(C(=O)O)cc(OC(=O)CCC)c1OC(=O)CCC [Compound 45, 3,4,5-tris(butyryloxy)benzoic acid]
Assay 2 (SIF) (% @ Remaining 4 hours) [4]: A (<25% of the tested compound remaining) | Mean Ankle Diameter AUC (mm*day) ([2]; 500 mg/kg PO BID): 94.20 mm*day | Mean Ankle Periosteal Bone width (um) ([2]; 500 mg/kg PO BID): 630.00 um | Mean Knee Inflammation score (0-5) ([2]; 500 mg/kg PO BID): 5.25 | Mean Terminal hind paw weights ([2]; 500 mg/kg PO BID): 2.3988 g | Mean body weight change, day −1 to 21 (%) ([2]; 500 mg/kg PO BID): −6.3% | Relative Spleen to Body Weight (Mean) ([2]; 500 mg/kg PO BID): 0.2534 | Mean Ankle Bone Resorption score (0-5) ([2]; 500 mg/kg PO BID): 3.48 | Mean Ankle Cartilage Damage score (0-5) ([2]; 500 mg/kg PO BID): 4.20 | Mean Ankle Pannus score (0-5) ([2]; 500 mg/kg PO BID): 3.48 | Mean Ankle Periosteal Bone score (0-5) ([2]; 500 mg/kg PO BID): 3.38 | Mean Ankle inflammation score (0-5) ([2]; 500 mg/kg PO BID): 2.3988 | Mean Knee Bone Resorption score (0-5) ([2]; 500 mg/kg PO BID): 2.40 | Mean Knee Cartilage Damage score (0-5) ([2]; 500 mg/kg PO BID): 3.63 | Mean Knee Pannus score (0-5) ([2]; 500 mg/kg PO BID): 2.48 | Serum IgG ([2]; 500 mg/kg PO BID): 5431.64 µg/mL | Assay 3 (% Remaining at 24 h) [5]: A (<25% of the tested compound remaining)

CCC(=O)O[C@@H]1O[C@@H](C)[C@H](OC(=O)CC)[C@@H](OC(=O)CC)[C@H]1OC(=O)CC [Compound 78, (2S,3R,4R,5S,6S)-6-methyl-3,4,5-tris(propanoyloxy)oxan-2-yl propanoate]
Assay 2 (SIF) (% @ Remaining 4 hours) [4]: A (<25% of the tested compound remaining) | Assay 1 (SGF) (% Remaining @ 1 hour) [6]: B (25-75% of the tested compound remaining) | Assay 3 (% Remaining at 24 h) [5]: A (<25% of the tested compound remaining)
